Source: paper PMC7521041 (Current Genomics, 2020)

target: T1, Alr0765 (Nostoc sp. PCC 7120 = FACHB-418, UniProt A0ACD7RPC9); assay: FTIR amide I conformational change; format: binding; settings: 3 mM ligand, 1.3 mM protein, pH 8.0, 25 C
T1 sequence (A0ACD7RPC9 1-204): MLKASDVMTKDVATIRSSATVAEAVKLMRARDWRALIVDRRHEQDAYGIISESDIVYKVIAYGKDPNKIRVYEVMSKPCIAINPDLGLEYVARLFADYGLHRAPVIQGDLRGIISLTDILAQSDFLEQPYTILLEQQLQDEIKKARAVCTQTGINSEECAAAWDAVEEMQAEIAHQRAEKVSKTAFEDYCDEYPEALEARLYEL

Compound | FTIR amide I conformational change
Nc1ncnc2c1ncn2[C@@H]1O[C@H](COP(=O)(O)OP(=O)(O)O)[C@@H](O)[C@H]1O [ADP] | Alr0765 binds with adenosyl ligands, which led to conformational changes
Nc1ncnc2c1ncn2[C@@H]1O[C@H](COP(=O)(O)O)[C@@H](O)[C@H]1O [AMP] | Alr0765 binds with adenosyl ligands, which led to conformational changes
NC(=O)C1=CN([C@@H]2O[C@H](COP(=O)(O)OP(=O)(O)OC[C@H]3O[C@@H](n4cnc5c(N)ncnc54)[C@H](O)[C@@H]3O)[C@@H](O)[C@H]2O)C=CC1 [NADH] | Alr0765 binds with adenosyl ligands, which led to conformational changes
